For five compounds, IC50 and MIC results are on record in patent US10183943B2, “Heterocyclic compounds and their use in preventing or treating bacterial infections” (MUTABILIS, priority 2015, dated 2019).

The target of one experiment is T1, TEM-1 (Escherichia coli, UniProt P62593).
T1 construct: made in house; host or cells: E. coli
Nature of the experiment: β-lactamase inhibitory activity, determination of IC50 (nitrocefin hydrolysis). The experiment is classed as biochemical.

The target in the next experiment is T2, SHV-1 (Klebsiella pneumoniae, UniProt P0AD64).
T2 construct: made in house; host or cells: E. coli
Described as above. It counts as biochemical.

A further experiment addresses T3, CTX-M-15 (Escherichia coli, UniProt Q9EXV5).
T3 construct: made in house; host or cells: E. coli
Described as above. The experiment is classed as biochemical. The following applies: class (A); nitrocefin 200 μM, 30 min pre-incubation; read-out: IC50 β-lactamase CTX-M-15.

The target in the next experiment is T4, KPC-2 (Klebsiella pneumoniae, UniProt Q9F663).
T4 construct: made in house; host or cells: E. coli
Described as above. It counts as biochemical. Particulars: class (A); nitrocefin 200 μM, 30 min pre-incubation; read-out: IC50 β-lactamase KPC-2.

A further experiment has as its target T5, OXA-1 (Escherichia coli, UniProt P13661).
T5 construct: made in house; host or cells: E. coli
The experiment is described as above. It counts as biochemical. The following applies: class (D); nitrocefin 200 μM, 30 min pre-incubation; read-out: IC50 β-lactamase OXA-1.

In the next experiment the target is T6, OXA-11 (Pseudomonas aeruginosa, UniProt Q06778).
T6 construct: made in house; host or cells: E. coli
The description is as above. The experiment is classed as biochemical.

Another experiment concerns the target T7, OXA-15 (Pseudomonas aeruginosa, UniProt Q51574).
T7 construct: made in house; host or cells: E. coli
Put plainly: biochemical.

Another experiment deals with T8, OXA-48 (Klebsiella pneumoniae, UniProt Q6XEC0).
T8 construct: made in house; host or cells: E. coli
Put plainly: β-lactamase inhibitory activity, determination of IC50 (nitrocefin hydrolysis). It counts as biochemical. The following applies: class (D); nitrocefin 200 μM, 30 min pre-incubation; read-out: IC50 β-lactamase OXA-48.

The test system of another experiment is E. cloacae P99 (AmpC). Nature of the experiment: MIC of compounds alone, broth microdilution. It counts as cell-based. The following applies: Enterobacter cloacae; strain P99 (E. cloacae); read-out: MIC compounds of the invention alone. Here is the method:
(§1) Method 2: MIC of Compounds and Synergy with Ceftazidime Against Bacterial Isolates (Table 2 and 3)
(§2) Compounds of the present invention were assessed against genotyped bacterial strains alone or in combination with the β-lactam ceftazidime (CAZ). In the assays, MICs of said compounds, or of ceftazidime at fixed concentrations of said compounds were determined by the broth microdilution method according to the Clinical Laboratory Standards Institute (CLSI-M7-A7). Briefly, compounds alone according to the invention were prepared in DMSO and spotted (2 μL each) on sterile polystyrene plates (Corning, 3788). Compounds and ceftazidime dilutions were prepared in DMSO and spotted (1 μL each) on sterile polystyrene plates (Corning, 3788). Log phase bacterial suspensions were adjusted to a final density of 5×10^5 cfu/mL in cation-adjusted Mueller-Hinton broth (Becton-Dickinson) and added to each well (98 μL). Microplates were incubated for 16-20 h at 35° C. in ambient air. The MIC of the compounds was defined as the lowest concentration of said compounds that prevented bacterial growth as read by visual inspection. The MIC of ceftazidime at each compound concentration was defined as the lowest concentration of ceftazidime that prevented bacterial growth as read by visual inspection.

For experiment [1], the system named is E. coli 131119 (TEM-1, OXA-48). Nature of the experiment: MIC of compounds alone, broth microdilution. The experiment is classed as cell-based. Particulars: Escherichia coli; strain 131119 (E. coli); read-out: MIC compounds of the invention alone. As to the method: as §1, §2
In another experiment the test system is E. coli RGN238 (OXA-1). Put plainly: MIC of compounds alone, broth microdilution. It counts as cell-based. The following applies: Escherichia coli; strain RGN238 (E. coli); read-out: MIC compounds of the invention alone. As to the method: as §1, §2
Experiment [2] relates to K. pneumoniae 6299 (TEM-1, SHV-11, OXA-163). Put plainly: MIC of compounds alone, broth microdilution. It counts as cell-based. Particulars: Klebsiella pneumoniae; strain 6299 (K. pneumoniae); read-out: MIC compounds of the invention alone. As to the method: as §1, §2
Experiment [3] has as its system K. pneumoniae BAA-1898 (TEM-1, SHV-11, SHV-12, KPC-2). Nature of the experiment: MIC of compounds alone, broth microdilution. It counts as cell-based. The following applies: Klebsiella pneumoniae, BAA1898; strain BAA-1898 (K. pneumoniae); read-out: MIC compounds of the invention alone. Here is the method: as §1, §2
Experiment [4] deals with P. aeruginosa CIP107051 (TEM-24). Nature of the experiment: MIC of compounds alone, broth microdilution. It counts as cell-based. The following applies: Pseudomonas aeruginosa; strain CIP107051 (P. aeruginosa); read-out: MIC compounds of the invention alone. Here is the method:
as §1, §2

The next experiment addresses AmpC (P99) (Enterobacter cloacae, UniProt P05364). Put plainly: β-lactamase inhibitory activity, determination of IC50 (nitrocefin hydrolysis).
For a further experiment, the target named is AmpC P. aeruginosa (Pseudomonas aeruginosa, UniProt P24735). The description is as above.
Sequence of AmpC P. aeruginosa (P24735 27-397): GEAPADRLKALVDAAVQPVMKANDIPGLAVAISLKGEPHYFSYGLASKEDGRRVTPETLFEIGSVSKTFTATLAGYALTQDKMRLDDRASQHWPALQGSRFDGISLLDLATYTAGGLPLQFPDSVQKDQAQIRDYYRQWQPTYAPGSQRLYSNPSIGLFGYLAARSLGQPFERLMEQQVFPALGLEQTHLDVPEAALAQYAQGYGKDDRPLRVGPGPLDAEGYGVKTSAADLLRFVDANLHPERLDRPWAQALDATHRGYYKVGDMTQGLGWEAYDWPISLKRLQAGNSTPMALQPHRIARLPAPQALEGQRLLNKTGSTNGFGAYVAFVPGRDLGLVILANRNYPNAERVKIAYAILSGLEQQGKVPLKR

T1 sequence (P62593 24-286 limits assumed): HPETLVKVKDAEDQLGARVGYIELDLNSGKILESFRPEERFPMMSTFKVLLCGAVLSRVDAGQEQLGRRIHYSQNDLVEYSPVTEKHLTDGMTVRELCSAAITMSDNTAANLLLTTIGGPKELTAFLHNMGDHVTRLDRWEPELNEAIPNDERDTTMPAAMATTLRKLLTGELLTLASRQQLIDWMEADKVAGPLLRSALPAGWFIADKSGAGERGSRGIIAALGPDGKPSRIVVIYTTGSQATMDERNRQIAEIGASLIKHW
T3 sequence (Q9EXV5 entry or part of it): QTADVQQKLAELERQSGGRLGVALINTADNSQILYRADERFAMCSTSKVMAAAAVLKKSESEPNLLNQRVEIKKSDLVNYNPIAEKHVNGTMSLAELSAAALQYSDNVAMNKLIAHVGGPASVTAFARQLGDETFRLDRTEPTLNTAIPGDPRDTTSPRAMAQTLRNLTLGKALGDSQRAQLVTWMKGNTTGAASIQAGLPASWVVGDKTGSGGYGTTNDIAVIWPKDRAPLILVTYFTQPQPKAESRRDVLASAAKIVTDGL
T4 sequence (Q9F663 25-293 limits assumed): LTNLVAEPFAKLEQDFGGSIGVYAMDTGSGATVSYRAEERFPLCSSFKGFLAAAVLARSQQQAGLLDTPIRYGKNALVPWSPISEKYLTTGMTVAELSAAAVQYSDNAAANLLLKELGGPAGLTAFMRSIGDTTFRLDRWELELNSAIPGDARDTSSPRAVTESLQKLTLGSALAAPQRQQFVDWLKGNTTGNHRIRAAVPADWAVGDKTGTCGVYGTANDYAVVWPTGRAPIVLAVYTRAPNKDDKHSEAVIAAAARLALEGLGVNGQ
T8 sequence (Q6XEC0 23-265 limits assumed): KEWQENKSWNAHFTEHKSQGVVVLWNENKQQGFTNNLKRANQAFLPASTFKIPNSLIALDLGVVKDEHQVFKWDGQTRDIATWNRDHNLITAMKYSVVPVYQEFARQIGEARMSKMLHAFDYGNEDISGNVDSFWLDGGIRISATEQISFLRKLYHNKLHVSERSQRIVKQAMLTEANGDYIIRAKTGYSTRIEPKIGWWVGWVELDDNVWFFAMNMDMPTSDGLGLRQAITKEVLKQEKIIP
T7 sequence (Q51574 22-275): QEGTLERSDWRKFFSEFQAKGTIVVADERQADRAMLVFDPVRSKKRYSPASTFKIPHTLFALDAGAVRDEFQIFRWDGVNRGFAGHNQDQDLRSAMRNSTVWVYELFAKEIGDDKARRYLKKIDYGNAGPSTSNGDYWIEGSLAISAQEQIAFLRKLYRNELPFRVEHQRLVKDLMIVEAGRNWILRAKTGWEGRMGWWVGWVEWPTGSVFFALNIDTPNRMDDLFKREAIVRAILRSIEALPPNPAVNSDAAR
Sequence of AmpC (P99) (P05364 21-381): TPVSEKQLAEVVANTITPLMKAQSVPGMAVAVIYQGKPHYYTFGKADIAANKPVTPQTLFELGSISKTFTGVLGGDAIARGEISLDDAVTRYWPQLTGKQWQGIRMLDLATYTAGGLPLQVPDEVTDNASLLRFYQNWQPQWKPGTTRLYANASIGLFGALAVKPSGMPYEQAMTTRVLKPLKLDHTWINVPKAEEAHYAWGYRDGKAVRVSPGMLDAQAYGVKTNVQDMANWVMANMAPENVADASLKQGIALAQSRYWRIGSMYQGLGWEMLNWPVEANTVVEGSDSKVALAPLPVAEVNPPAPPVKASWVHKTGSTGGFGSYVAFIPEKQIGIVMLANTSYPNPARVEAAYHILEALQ
T5 sequence (P13661 26-276): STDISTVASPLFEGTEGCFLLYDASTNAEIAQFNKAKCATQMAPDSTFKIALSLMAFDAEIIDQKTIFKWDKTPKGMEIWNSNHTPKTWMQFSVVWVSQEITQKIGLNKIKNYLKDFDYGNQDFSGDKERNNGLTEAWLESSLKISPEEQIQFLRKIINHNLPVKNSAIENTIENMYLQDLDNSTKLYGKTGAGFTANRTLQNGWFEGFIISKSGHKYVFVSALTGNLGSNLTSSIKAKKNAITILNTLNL
T2 sequence (P0AD64 22-286): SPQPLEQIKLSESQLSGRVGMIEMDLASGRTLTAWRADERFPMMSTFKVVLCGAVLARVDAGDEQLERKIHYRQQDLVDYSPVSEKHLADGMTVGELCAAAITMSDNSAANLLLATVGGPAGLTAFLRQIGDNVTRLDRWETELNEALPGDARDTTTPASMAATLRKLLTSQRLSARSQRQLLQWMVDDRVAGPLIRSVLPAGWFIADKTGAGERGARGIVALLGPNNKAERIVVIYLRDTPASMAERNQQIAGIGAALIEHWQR
T6 sequence (Q06778 21-266): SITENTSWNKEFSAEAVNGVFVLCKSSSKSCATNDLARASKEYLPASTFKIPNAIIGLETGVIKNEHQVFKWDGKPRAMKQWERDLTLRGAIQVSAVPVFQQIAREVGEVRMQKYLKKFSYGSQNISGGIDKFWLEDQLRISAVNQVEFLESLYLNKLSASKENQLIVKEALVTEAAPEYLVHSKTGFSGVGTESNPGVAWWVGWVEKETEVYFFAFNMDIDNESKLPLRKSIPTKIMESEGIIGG

Consider `O=C1N2CC=C(c3cccnc3)C(C2)N1OS(=O)(=O)[O-].[Na+]` (centres unmarked) [Example 9, Sodium [4-(3-pyridyl)-7-oxo-1,6-diazabicyclo[3.2.1]oct-3-en-6-yl]sulfate], for which the IC50 against TEM-1 worked out at 3.8 nM; against SHV-1, 11 nM; at CTX-M-15 it was 4.8 nM; at KPC-2, 68 nM; on OXA-1 it was 130 nM; against OXA-11, 730 nM. Besides, the IC50 at OXA-15 was determined as 52 nM; on OXA-48 it was 1.4 nM; at AmpC (P99) it was 770 nM; on AmpC P. aeruginosa it was 810 nM. Besides, the MIC is greater than 32 µg/mL in the experiment on E. cloacae P99 (AmpC); 16 µg/mL in experiment [1]; greater than 32 µg/mL in the experiment on E. coli RGN238 (OXA-1); greater than 32 µg/mL in experiment [2]; greater than 32 µg/mL in experiment [3]; greater than 32 µg/mL in [4].
Consider `Cn1ccc(C2=CCN3CC2N(OS(=O)(=O)[O-])C3=O)cc1=O.[Na+]` (centres unmarked) [Example 13, Sodium [4-(1-methyl-2-oxo-4-pyridyl)-7-oxo-1,6-diazabicyclo[3.2.1]oct-3-en-6-yl] sulfate], for which the half-inhibitory concentration (IC50) on TEM-1 was 6.1 nM; against SHV-1 it was 8.8 nM; on CTX-M-15 it was 6 nM; on KPC-2 it was 63 nM; at OXA-1 it was 820 nM; on OXA-11, 730 nM. For the same compound, the IC50 was determined as 230 nM on OXA-15, 2.3 nM on OXA-48, 2800 nM against AmpC (P99) and 3200 nM at AmpC P. aeruginosa. Also, the MIC in the experiment with E. cloacae P99 (AmpC) is 16 µg/mL; in experiment [1] it was 8 µg/mL; in the experiment on E. coli RGN238 (OXA-1), greater than 32 µg/mL; in [2] it was greater than 32 µg/mL; in [3] it was greater than 32 µg/mL; in experiment [4], greater than 32 µg/mL.
On to `Cn1cc(C2=CCN3CC2N(OS(=O)(=O)[O-])C3=O)ncc1=O.[Na+]` (centres unmarked) [Example 14, Sodium [4-(4-methyl-5-oxo-pyrazin-2-yl)-7-oxo-1,6-diazabicyclo[3.2.1]oct-3-en-6-yl] sulfate], for which the IC50 stood at 1.6 nM against TEM-1; 2.9 nM against SHV-1; 2.7 nM on CTX-M-15; 52 nM on KPC-2; 730 nM at OXA-1; 920 nM at OXA-11. In addition, the IC50 on OXA-15 came out at 33 nM; on OXA-48, 1.4 nM; on AmpC (P99), 890 nM; at AmpC P. aeruginosa, 1900 nM. Further, the MIC in the experiment with E. cloacae P99 (AmpC) was 8 µg/mL; in experiment [1] it was 8 µg/mL; in the experiment on E. coli RGN238 (OXA-1), greater than 32 µg/mL; in experiment [2], greater than 32 µg/mL; in [3] it was greater than 32 µg/mL; in [4] it was greater than 32 µg/mL.
As for `O=C1N2CC(c3cnoc3)=CC(C2)N1OS(=O)(=O)[O-].[Na+]` (centres unmarked) [Example 26, sodium [3-(isoxazol-4-yl)-7-oxo-1,6-diazabicyclo[3.2.1]oct-3-en-6-yl] sulfate], the IC50 on TEM-1 is 4.8 nM; against SHV-1 it was 13 nM; at CTX-M-15, 5.7 nM; on KPC-2 it was 4.2 nM; on OXA-1 it was 370 nM; at OXA-11, 140 nM. The IC50 came to 210 nM on OXA-15, 6.6 nM at OXA-48, 51 nM against AmpC (P99) and 74 nM at AmpC P. aeruginosa. Besides, the MIC in the experiment on E. cloacae P99 (AmpC) is 8 µg/mL; in experiment [1] it was 2 µg/mL; in the experiment on E. coli RGN238 (OXA-1) it was 4 µg/mL; in experiment [2], 8 µg/mL; in experiment [3], 8 µg/mL; in [4] it was greater than 32 µg/mL.
Turning to `O=C1N2CC=C(c3ccns3)C(C2)N1OS(=O)(=O)[O-].[Na+]` (centres unmarked) [Example 30, Sodium [4-(isothiazol-5-yl)-7-oxo-1,6-diazabicyclo[3.2.1]oct-3-en-6-yl] sulfate], the IC50 at TEM-1 stood at 5.2 nM; against SHV-1, 15 nM; on CTX-M-15, 1.8 nM; on KPC-2, 63 nM; at OXA-1, 150 nM; at OXA-11, 720 nM. In addition, the IC50 against OXA-15 worked out at 23 nM; at OXA-48, 2.5 nM; against AmpC (P99), 200 nM; against AmpC P. aeruginosa it was 780 nM. Also, the MIC in the experiment with E. cloacae P99 (AmpC) is 8 µg/mL; in [1], 4 µg/mL; in the experiment on E. coli RGN238 (OXA-1) it was greater than 32 µg/mL; in experiment [2], greater than 32 µg/mL; in experiment [3], greater than 32 µg/mL; in [4], greater than 32 µg/mL.
